Here are results for 18 compounds from ChEMBL document CHEMBL1153168, “3D QSAR studies on 3,4-dihydroquinazolines as T-type calcium channel blocker by comparative molecular similarity indices analysis (CoMSIA)” (Bioorg Med Chem Lett, 2010).

For this assay, the target named is Voltage-dependent T-type calcium channel subunit alpha-1G (Homo sapiens, UniProt O43497). Kind of assay: Inhibition of human T-type calcium channel alpha1G in HEK293 cells. In kind it is cell-based.
Chain of Voltage-dependent T-type calcium channel subunit alpha-1G (O43497 whole entry): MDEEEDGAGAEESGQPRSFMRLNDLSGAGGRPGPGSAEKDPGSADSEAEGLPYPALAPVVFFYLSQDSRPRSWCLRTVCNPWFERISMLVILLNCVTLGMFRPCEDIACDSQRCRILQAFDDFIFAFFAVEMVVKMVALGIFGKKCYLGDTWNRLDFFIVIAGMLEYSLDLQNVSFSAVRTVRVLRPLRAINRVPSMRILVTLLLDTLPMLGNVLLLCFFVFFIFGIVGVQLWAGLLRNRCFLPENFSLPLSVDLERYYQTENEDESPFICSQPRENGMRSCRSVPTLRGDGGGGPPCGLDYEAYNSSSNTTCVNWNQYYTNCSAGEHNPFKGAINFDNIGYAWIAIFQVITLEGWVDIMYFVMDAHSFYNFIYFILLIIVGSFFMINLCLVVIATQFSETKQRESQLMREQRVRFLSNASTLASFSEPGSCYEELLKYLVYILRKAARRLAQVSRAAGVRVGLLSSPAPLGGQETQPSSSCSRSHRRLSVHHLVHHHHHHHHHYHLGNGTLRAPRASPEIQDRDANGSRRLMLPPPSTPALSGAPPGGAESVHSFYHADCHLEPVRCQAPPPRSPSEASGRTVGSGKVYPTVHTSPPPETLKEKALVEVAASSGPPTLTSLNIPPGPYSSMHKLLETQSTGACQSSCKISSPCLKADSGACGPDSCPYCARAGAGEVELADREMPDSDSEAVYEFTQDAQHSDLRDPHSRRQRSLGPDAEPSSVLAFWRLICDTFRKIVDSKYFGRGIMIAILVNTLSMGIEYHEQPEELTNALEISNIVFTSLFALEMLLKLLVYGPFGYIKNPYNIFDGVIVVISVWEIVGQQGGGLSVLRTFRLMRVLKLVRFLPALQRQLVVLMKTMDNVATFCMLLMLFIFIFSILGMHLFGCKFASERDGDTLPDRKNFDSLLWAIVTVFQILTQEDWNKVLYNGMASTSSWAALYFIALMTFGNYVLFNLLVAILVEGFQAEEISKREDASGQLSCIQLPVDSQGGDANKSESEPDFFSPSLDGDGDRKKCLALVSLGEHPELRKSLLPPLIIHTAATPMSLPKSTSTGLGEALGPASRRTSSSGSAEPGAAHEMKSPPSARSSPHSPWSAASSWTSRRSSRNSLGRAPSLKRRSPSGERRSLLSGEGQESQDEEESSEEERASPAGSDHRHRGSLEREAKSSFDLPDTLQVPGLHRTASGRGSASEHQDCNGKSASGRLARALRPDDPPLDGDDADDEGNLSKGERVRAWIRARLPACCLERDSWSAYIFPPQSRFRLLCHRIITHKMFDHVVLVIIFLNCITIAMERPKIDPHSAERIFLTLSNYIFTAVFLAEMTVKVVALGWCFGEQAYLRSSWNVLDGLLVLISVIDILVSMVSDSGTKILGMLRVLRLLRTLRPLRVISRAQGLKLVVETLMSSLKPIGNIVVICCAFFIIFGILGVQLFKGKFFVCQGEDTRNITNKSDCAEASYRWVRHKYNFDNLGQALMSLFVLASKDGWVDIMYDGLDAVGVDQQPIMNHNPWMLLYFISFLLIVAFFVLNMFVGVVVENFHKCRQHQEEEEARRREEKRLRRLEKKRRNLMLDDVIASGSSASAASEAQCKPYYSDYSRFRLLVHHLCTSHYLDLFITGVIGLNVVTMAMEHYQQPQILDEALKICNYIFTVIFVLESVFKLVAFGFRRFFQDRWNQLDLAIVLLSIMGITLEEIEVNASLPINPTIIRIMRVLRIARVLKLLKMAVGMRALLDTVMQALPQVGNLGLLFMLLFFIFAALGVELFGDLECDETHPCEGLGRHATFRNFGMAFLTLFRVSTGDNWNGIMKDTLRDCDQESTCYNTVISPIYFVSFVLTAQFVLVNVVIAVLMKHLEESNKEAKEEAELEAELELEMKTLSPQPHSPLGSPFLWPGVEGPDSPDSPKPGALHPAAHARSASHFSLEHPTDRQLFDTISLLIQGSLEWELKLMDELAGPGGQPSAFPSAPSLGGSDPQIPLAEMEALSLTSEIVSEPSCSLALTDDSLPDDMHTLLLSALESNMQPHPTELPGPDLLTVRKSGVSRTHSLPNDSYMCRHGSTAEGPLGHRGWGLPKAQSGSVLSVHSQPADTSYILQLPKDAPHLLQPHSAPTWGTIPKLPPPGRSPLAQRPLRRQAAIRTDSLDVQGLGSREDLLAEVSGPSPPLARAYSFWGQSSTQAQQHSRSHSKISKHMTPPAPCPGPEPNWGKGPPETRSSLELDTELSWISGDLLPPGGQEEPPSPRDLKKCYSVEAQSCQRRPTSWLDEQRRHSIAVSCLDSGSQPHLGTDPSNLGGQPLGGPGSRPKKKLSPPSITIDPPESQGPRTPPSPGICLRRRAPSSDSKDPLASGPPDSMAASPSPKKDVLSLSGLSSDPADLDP
As for `Nc1ccc(CNC(=O)CC2c3ccccc3N=C(N3CCCCC3)N2c2ccccc2)cc1` (stereo not drawn), the half-maximal inhibitory concentration (IC50) is 13000 nM.

`COC(=O)CC1c2ccccc2N=C(NCCCCCNC(=O)OC(C)(C)C)N1c1ccccc1` (stereo not drawn): the 50% inhibitory concentration (IC50) is 2020 nM.

As for `COC(=O)CC1c2ccccc2N=C(Nc2ccccc2)N1CCCCCNC(=O)OC(C)(C)C` (stereo not drawn), the IC50 is 2270 nM.

On to `CCN1C(N(C)C)=Nc2cc(N)ccc2C1CC(=O)NCc1ccc(N)cc1` (stereo not drawn), for which the 50% inhibitory concentration (IC50) was 12700 nM.

For `CCN1C(N(C)C)=Nc2ccccc2C1CC(=O)NCc1ccc(NS(=O)(=O)c2ccc(F)cc2)cc1` (stereo not drawn), the 50% inhibitory concentration (IC50) was 4100 nM.

As for `O=C(CC1c2ccccc2N=C(N2CCCCC2)N1c1ccccc1)NS(=O)(=O)c1cccs1` (stereo not drawn), the concentration for half-maximal inhibition (IC50) is 1010 nM.

On to `CC(C)(C)OC(=O)NCCCCCN1C(Nc2ccccc2)=Nc2ccccc2C1CC(=O)NCc1ccccc1` (stereo not drawn), for which the IC50 was 1200 nM.

In the case of `CCN1C(N2CCCCC2)=Nc2ccccc2C1CC(=O)NCc1ccccc1` (stereo not drawn), the concentration for half-maximal inhibition (IC50) was 4580 nM.

In the case of `COC(=O)CC1c2ccccc2N=C(NCCCCCN)N1c1ccccc1` (stereo not drawn), the concentration for half-maximal inhibition (IC50) is 1840 nM.

Regarding `O=C(CC1c2ccccc2N=C(N2CCCCC2)N1c1ccccc1)NCc1ccc([N+](=O)[O-])cc1` (stereo not drawn), the IC50 is 2340 nM.

As for `NCCCCCNC1=Nc2ccccc2C(CC(=O)NCc2ccccc2)N1c1ccccc1` (stereo not drawn), the IC50 is 3130 nM.

Turning to `CCN1C(N(C)C)=Nc2ccccc2C1CC(=O)NCc1ccc([N+](=O)[O-])cc1` (stereo not drawn), the IC50 is 2170 nM.

As for `CN(C)C1=Nc2ccccc2C(CC(=O)NCc2ccc(NS(=O)(=O)c3ccc(F)cc3)cc2)N1c1ccccc1` (stereo not drawn), the half-inhibitory concentration (IC50) is 430 nM.

Take `NCCCCCN1C(Nc2ccccc2)=Nc2ccccc2C1CC(=O)NCc1ccccc1` (stereo not drawn): the IC50 is 4540 nM.

As to `CCN1C(N(C)C)=Nc2ccccc2C1CC(=O)NCc1ccc(NS(=O)(=O)c2ccc(C)cc2)cc1` (stereo not drawn), the IC50 is 1120 nM.

Consider `COC(=O)CC1c2ccccc2N=C(Nc2ccccc2)N1CCCCCN` (stereo not drawn), for which the IC50 was 9160 nM.

As to `CCN1C(N(C)C)=Nc2ccccc2C1CC(=O)NCc1ccccc1` (stereo not drawn), the IC50 was 24200 nM.

Turning to `CCN1C(N2CCCCC2)=Nc2ccccc2C1CC(=O)NCc1ccc([N+](=O)[O-])cc1` (stereo not drawn), the concentration for half-maximal inhibition (IC50) was 869 nM.

In general, IC50 refers to the concentration needed to halve the response being measured.
